This note sets out measurements from patent US20240217968A1, “PHARMACEUTICAL COMPOUND” (DUKE STREET BIO LIMITED, priority 2021, published 2024).

The assay has as its target T1, recombinant human Flag-tagged PARP7 (amino acids 456-657) (Homo sapiens, UniProt Q7Z3E1).
T1 construct: recombinant human Flag-tagged PARP7 (amino acids 456-657)
T1 sequence (Q7Z3E1 456-657): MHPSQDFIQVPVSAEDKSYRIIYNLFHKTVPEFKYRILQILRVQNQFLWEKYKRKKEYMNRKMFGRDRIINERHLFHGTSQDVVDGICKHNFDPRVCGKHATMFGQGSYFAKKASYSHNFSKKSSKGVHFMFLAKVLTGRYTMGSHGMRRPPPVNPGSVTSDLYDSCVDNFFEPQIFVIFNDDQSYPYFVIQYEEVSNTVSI
The assay is described as follows: PARP7 biochemical DELFIA assay (auto-MARylation). The following applies: DELFIA readout, IC50 class. In outline:
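Readout is DELFIA time-resolved Eu fluorescence (Ex337 nm, Em620 nm) of biotin-ADP-ribose on immobilised Flag-tagged PARP7 456-657. Enzyme (12.5-37.5 nM as added) sat 30 min with compound before biotin-NAD+ (15 μM solution, pH 7.5 HEPES buffer) started 2-3 h room-temperature self-modification, stopped with excess NAD+.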
Take `N#Cc1ccc(OC2CCN(C(=O)CCOCCc3cccc4c(=O)[nH]ncc34)C2)nc1` (stereo not drawn) [Compound 116]: the IC50 (usually the concentration that inhibits the measured activity by half) lay within 1000 to 10000 nM.
Consider `CC(COCCC(=O)N1CCN(c2cc(C(F)(F)F)[nH]n2)CC1)n1nc(C(F)(F)F)c2c(=O)[nH]ncc21` (stereo not drawn) [Compound 489], for which the IC50 was ≤ 100 nM.
On to `O=C(COCCOc1cccc2c(=O)[nH]ncc12)N1CCN(c2ncc(C(F)(F)F)cn2)CC1` [Compound 3], for which the IC50 is 100 to 1000 nM.
To `O=C(CCOCCc1cccc2c(=O)[nH]ncc12)N1CCN(c2ccc(F)cn2)CC1` [Compound 95] belongs 100 to 1000 nM; to `CC(COCCC(=O)N1CCN(c2ncc(C(F)(F)F)cn2)CC1)c1ccc(Cl)c2c(=O)[nH]ncc12` (stereo not drawn) [Compound 399], 100 to 1000 nM.
To `CC(COCCC(=O)N1CCN(c2ncc(C(F)(F)F)cn2)CC1)n1nc(C(F)(F)F)c2c(=O)[nH]ccc21` (stereo not drawn) [Compound 389] belongs ≤ 100 nM; to `O=C(CCOCCn1ncc2c(=O)[nH]ncc21)N1CCN(c2ccc(Cl)cn2)CC1` [Compound 133], ≤ 100 nM.
As to `CC(COCCC(=O)N1CCN(c2ncccc2C#N)CC1)n1nc(C(F)(F)F)c2c(=O)[nH]ncc21` (single isomer, unassigned) [Compound 406], the IC50 was ≤ 100 nM.
Consider `COc1ccc(N2CCN(C(=O)CCOCC(C)n3nc(C(F)(F)F)c4c(=O)[nH]ncc43)CC2)nc1` (stereo not drawn) [Compound 307], for which the IC50 was ≤ 100 nM.
Under `Cc1nn(C(C)COCCC(=O)N2CCN(c3ncc(C(F)(F)F)cn3)CC2)c2cn[nH]c(=O)c12` (single isomer, unassigned) [Compound 245] stands ≤ 100 nM; under `CN1CCN(CCOCCC(=O)N2CCN(c3ncc(C(F)(F)F)cn3)CC2)c2cn[nH]c(=O)c21` [Compound 55], ≤ 100 nM.
Turning to `Cc1nn(C(C)COCCC(=O)N2CCN(c3ccc(C#N)cn3)CC2)c2cn[nH]c(=O)c12` (stereo not drawn) [Compound 244], the IC50 was ≤ 100 nM.
Take `O=C(CCCCOc1cccc2c(=O)[nH]ncc12)N1CCN(c2ncc(C(F)(F)F)cn2)CC1` [Compound 35]: the IC50 lay in the range of 100 to 1000 nM.
For the molecule `CC(COCCC(=O)N1CCN(c2ncc(F)cc2F)CC1)n1nc(C(F)(F)F)c2c(=O)[nH]ncc21` (stereo not drawn) [Compound 349], the IC50 was ≤ 100 nM.
Consider `O=C(CCOCCc1cccc2c(=O)[nH]ncc12)N1CCN(c2nc3ccccc3o2)CC1` [Compound 146], for which the IC50 was ≤ 100 nM.
For the molecule `CC(COCCC(=O)N1CCN(c2ncc(OC(F)F)cn2)CC1)n1nc(C(F)(F)F)c2c(=O)[nH]ncc21` (stereo not drawn) [Compound 293], the IC50 was ≤ 100 nM.
`CC(COCCC(=O)N1CCN(c2nc(C#N)cs2)CC1)n1nc(C(F)(F)F)c2c(=O)[nH]ncc21` (stereo not drawn) [Compound 251]: the IC50 is ≤ 100 nM.
With `N#Cc1ccc(N2CCN(C(=O)c3cccc(Cc4cccc5c(=O)[nH]c(=O)[nH]c45)c3)CC2)nc1` [Compound 18], the IC50 was in the range of 100 to 1000 nM.
For `CC(C)(COCCC(=O)N1CCN(c2ncc(C(F)(F)F)cn2)CC1)n1nc(C(F)(F)F)c2c(=O)[nH]ncc21` [Compound 346], the IC50 is ≤ 100 nM.
`CC(COCCC(=O)N1CCN(c2ncc(C(F)(F)F)cn2)CC1)c1ccc(Cl)c2c(=O)[nH]ncc12` (stereo not drawn) [Compound 400]: the IC50 was ≤ 100 nM.
Under `[2H]C(C)(COCCC(=O)N1CCN(c2ncc(C(F)(F)F)cn2)CC1)n1cc(C(F)(F)F)c2c(=O)[nH]ncc21` (single isomer, unassigned) [Compound 476, 1-(1-(3-oxo-3-(4-(5-(trifluoromethyl)pyrimidin-2-yl)piperazin-1-yl)propoxy)propan-2-yl-2-d)-3-(trifluoromethyl)-1,5-dihydro-4H-pyrrolo[2,3-d]pyridazin-4-one] stands ≤ 100 nM.
Regarding `CC(COCCC(=O)N1CCN(c2ncccc2C(F)(F)F)CC1)n1nc(C(F)(F)F)c2c(=O)[nH]ncc21` (stereo not drawn) [Compound 354], the IC50 lay in the range of 100 to 1000 nM.
Consider `O=C(CCOCCn1nc(C(F)(F)F)c2c(=O)[nH]ncc21)N1CCN(c2nnc(C(F)(F)F)[nH]2)CC1` [Compound 391], for which the IC50 is ≤ 100 nM.
On to `CC1CN(c2ncc(C(F)(F)F)cn2)CCN1C(=O)CCOCCn1ncc2c(=O)[nH]ncc21` (stereo not drawn) [Compound 143], for which the IC50 is ≤ 100 nM.
For `N#Cc1ccc(N2CCN(C(=O)CCOCCc3cc(C#N)cc4c(=O)[nH]ncc34)CC2)nc1` [Compound 111], the IC50 lay within 100 to 1000 nM.
Turning to `CC(COCCC(=O)N1CCN(c2ncccc2C(F)(F)F)CC1)n1nc(C(F)(F)F)c2c(=O)[nH]ncc21` (stereo not drawn) [Compound 353], the IC50 was ≤ 100 nM.
To `CC(COCCC(=O)N1CCN(c2ncc(C(F)(F)F)cn2)CC1)n1nc(C(F)(F)F)c2c(=O)[nH]ccc21` (stereo not drawn) [Compound 388] belongs ≤ 100 nM; to `CC(COCCC(=O)N1CCN(c2ncc(C(C)(C)C)cn2)CC1)n1cc(C(F)(F)F)c2c(=O)[nH]ncc21` (single isomer, unassigned) [Compound 498], ≤ 100 nM; to `CC(COCCC(=O)N1CCN(c2ncc(C(F)(F)F)cn2)CC1)n1nc(C(F)F)c2c(=O)[nH]ncc21` (stereo not drawn) [Compound 435], ≤ 100 nM.
Regarding `N#Cc1cnc(N2CCN(C(=O)CCOCCn3cc(C(F)(F)F)c4c(=O)[nH]ncc43)CC2)s1` [Compound 487], the IC50 was ≤ 100 nM.
Take `O=C(CCOCCn1cnc2c(=O)[nH]ncc21)N1CCN(c2ncc(C(F)(F)F)cn2)CC1` [Compound 51]: the IC50 lay within 100 to 1000 nM.
As for `CC(COCCC(=O)N1CCN(c2ncccc2Cl)CC1)n1nc(C(F)(F)F)c2c(=O)[nH]ncc21` (stereo not drawn) [Compound 355], the IC50 was ≤ 100 nM.
To `Cc1ccc(N2CCN(C(=O)CCOCC(C)n3nc(C(F)(F)F)c4c(=O)[nH]ncc43)CC2)nc1` (stereo not drawn) [Compound 334] belongs ≤ 100 nM.
Under `O=c1[nH]ncc2c1c(C(F)(F)F)nn2CCOCCS(=O)(=O)N1CCN(c2ncc(C(F)(F)F)cn2)CC1` [Compound 447] stands ≤ 100 nM.
To `CC(COCCC(=O)N1CCN(c2ncc(C#N)cn2)CC1)n1nc(C(F)(F)F)c2c(=O)[nH]ncc21` (single isomer, unassigned) [Compound 322, 2-(4-(3-(2-(4-oxo-3-(trifluoromethyl)-4,5-dihydro-1H-pyrazolo[3,4-d]pyridazin-1-yl)propoxy)propanoyl)piperazin-1-yl) pyrimidine-5-carbonitrile] belongs ≤ 100 nM; to `O=C(CCOCCc1cccc2c(=O)[nH]ncc12)N1CCC(c2nc3ccccc3o2)CC1` [Compound 139], ≤ 100 nM.
`O=C(c1cccc(Cc2cccc3c(=O)[nH]ncc23)c1)N1CCN(C(=O)C2CC2)CC1` [Compound 2]: the IC50 lay within 1000 to 10000 nM.
Regarding `[2H]C([2H])(Cn1nc(C(F)(F)F)c2c(=O)[nH]ncc21)OCCC(=O)N1CCN(c2ncc(C(F)(F)F)cn2)CC1` [Compound 409], the concentration for half-maximal inhibition (IC50) was ≤ 100 nM.
Turning to `CC(C)(COCC(=O)N1CCN(c2ncc(C(F)(F)F)cn2)CC1)Oc1cccc2c(=O)[nH]ncc12` [Compound 34], the IC50 lay within 1000 to 10000 nM.
`O=C(CCOCCc1cccc2c(=O)[nH]ncc12)N1CCN(c2nc3ccc(F)cc3o2)CC1` [Compound 180]: the IC50 was ≤ 100 nM.
For the molecule `O=C(CCOCCn1nc(C(F)(F)F)c2c(=O)[nH]ncc21)N1CCN(c2ncc3c(n2)NCCC3)CC1` [Compound 394], the IC50 was ≤ 100 nM.
In the case of `O=C1CCc2cnc(N3CCN(C(=O)CCOCCn4nc(C(F)(F)F)c5c(=O)[nH]ncc54)CC3)nc2N1` [Compound 303], the IC50 is ≤ 100 nM.
Take `CC(COCCC(=O)N1CCN(c2nnc(C(F)(F)F)s2)CC1)n1nc(C(F)(F)F)c2c(=O)[nH]ncc21` (single isomer, unassigned) [Compound 291]: the IC50 is 100 to 1000 nM.
As to `CC(COCCC(=O)N1CCN(c2ncc(C#N)s2)CC1)n1nc(C(F)(F)F)c2c(=O)[nH]ncc21` (single isomer, unassigned) [Compound 284], the IC50 was ≤ 100 nM.
In the case of `Cc1nn(C(C)COCCC(=O)N2CCN(c3ncc(Cl)cn3)CC2)c2cn[nH]c(=O)c12` (single isomer, unassigned) [Compound 335], the IC50 was ≤ 100 nM.
To `CC(CCOCC(=O)N1CCN(c2ccc(C#N)cn2)CC1)n1nc(C(F)(F)F)c2c(=O)[nH]ncc21` (single isomer, unassigned) [Compound 467] belongs ≤ 100 nM.
Turning to `CC1CN(C(=O)CCOCCN2C(=O)CCc3c2cn[nH]c3=O)CCN1c1ncc(C(F)(F)F)cn1` (stereo not drawn) [Compound 309], the IC50 is ≤ 100 nM.
With `N#Cc1ccc(N2CCN(C(=O)c3cccc(Oc4cccc5c(=O)[nH]ncc45)c3)CC2)nc1` [Compound 29], the IC50 lay in the range of 100 to 1000 nM.
Regarding `O=C(CCOCCc1csc2c(=O)[nH]c(=O)[nH]c12)N1CCN(c2ncc(C(F)(F)F)cn2)CC1` [Compound 144], the IC50 was ≤ 100 nM.
As for `CC(COCCC(=O)N1CCN(c2nnc(C(F)(F)F)s2)CC1)n1nc(C(F)(F)F)c2c(=O)[nH]ncc21` (stereo not drawn) [Compound 292], the IC50 was ≤ 100 nM.
With `CC(COCCC(=O)N1CCN(c2ncc(F)cc2F)CC1)n1nc(C(F)(F)F)c2c(=O)[nH]ncc21` (single isomer, unassigned) [Compound 350], the IC50 was ≤ 100 nM.
Under `CC(COCCC(=O)N1CCN(c2ccc(F)cn2)CC1)n1nc(C(F)(F)F)c2c(=O)[nH]ncc21` (stereo not drawn) [Compound 347] stands ≤ 100 nM; under `O=C(CCCOC(c1cccc2c(=O)[nH]ncc12)C(F)(F)F)N1CCN(c2ncc(C(F)(F)F)cn2)CC1` (single isomer, unassigned) [Compound 222, 5-(2,2,2-trifluoro-1-(4-oxo-4-(4-(5-(trifluoromethyl)pyrimidin-2-yl)piperazin-1-yl)butoxy)ethyl)phthalazin-1(2H)-one], 100 to 1000 nM; under `CC(COCCC(=O)N1CCN(c2ccc(C#N)cn2)CC1)c1ccc(Cl)c2c(=O)[nH]ncc12` (stereo not drawn) [Compound 417], ≤ 100 nM.
